Measured values published in patent publication US20070043024A1, “Azacyclic compounds as inhibitors of sensory neurone specific channels” (priority 2003, published 2007).

What follows are compounds tested against T1, human Nav1.8 (hNav1.8) ion channel (Homo sapiens, UniProt Q9Y5Y9) (assay: Inhibition of human Nav1.8 stably expressed in SH-SY-5Y cells (membrane potential dye fluorescence assay)). Conditions: IC50, Table 1; SH-SY-5Y hNav1.8 cells, inhibition of membrane depolarisation, FLIPR membrane potential dye, 250 nM TTX, test concentration range 100 μM-0.05 μM.
T1 construct: expressed in transfected cells
T1 sequence (Q9Y5Y9 whole entry): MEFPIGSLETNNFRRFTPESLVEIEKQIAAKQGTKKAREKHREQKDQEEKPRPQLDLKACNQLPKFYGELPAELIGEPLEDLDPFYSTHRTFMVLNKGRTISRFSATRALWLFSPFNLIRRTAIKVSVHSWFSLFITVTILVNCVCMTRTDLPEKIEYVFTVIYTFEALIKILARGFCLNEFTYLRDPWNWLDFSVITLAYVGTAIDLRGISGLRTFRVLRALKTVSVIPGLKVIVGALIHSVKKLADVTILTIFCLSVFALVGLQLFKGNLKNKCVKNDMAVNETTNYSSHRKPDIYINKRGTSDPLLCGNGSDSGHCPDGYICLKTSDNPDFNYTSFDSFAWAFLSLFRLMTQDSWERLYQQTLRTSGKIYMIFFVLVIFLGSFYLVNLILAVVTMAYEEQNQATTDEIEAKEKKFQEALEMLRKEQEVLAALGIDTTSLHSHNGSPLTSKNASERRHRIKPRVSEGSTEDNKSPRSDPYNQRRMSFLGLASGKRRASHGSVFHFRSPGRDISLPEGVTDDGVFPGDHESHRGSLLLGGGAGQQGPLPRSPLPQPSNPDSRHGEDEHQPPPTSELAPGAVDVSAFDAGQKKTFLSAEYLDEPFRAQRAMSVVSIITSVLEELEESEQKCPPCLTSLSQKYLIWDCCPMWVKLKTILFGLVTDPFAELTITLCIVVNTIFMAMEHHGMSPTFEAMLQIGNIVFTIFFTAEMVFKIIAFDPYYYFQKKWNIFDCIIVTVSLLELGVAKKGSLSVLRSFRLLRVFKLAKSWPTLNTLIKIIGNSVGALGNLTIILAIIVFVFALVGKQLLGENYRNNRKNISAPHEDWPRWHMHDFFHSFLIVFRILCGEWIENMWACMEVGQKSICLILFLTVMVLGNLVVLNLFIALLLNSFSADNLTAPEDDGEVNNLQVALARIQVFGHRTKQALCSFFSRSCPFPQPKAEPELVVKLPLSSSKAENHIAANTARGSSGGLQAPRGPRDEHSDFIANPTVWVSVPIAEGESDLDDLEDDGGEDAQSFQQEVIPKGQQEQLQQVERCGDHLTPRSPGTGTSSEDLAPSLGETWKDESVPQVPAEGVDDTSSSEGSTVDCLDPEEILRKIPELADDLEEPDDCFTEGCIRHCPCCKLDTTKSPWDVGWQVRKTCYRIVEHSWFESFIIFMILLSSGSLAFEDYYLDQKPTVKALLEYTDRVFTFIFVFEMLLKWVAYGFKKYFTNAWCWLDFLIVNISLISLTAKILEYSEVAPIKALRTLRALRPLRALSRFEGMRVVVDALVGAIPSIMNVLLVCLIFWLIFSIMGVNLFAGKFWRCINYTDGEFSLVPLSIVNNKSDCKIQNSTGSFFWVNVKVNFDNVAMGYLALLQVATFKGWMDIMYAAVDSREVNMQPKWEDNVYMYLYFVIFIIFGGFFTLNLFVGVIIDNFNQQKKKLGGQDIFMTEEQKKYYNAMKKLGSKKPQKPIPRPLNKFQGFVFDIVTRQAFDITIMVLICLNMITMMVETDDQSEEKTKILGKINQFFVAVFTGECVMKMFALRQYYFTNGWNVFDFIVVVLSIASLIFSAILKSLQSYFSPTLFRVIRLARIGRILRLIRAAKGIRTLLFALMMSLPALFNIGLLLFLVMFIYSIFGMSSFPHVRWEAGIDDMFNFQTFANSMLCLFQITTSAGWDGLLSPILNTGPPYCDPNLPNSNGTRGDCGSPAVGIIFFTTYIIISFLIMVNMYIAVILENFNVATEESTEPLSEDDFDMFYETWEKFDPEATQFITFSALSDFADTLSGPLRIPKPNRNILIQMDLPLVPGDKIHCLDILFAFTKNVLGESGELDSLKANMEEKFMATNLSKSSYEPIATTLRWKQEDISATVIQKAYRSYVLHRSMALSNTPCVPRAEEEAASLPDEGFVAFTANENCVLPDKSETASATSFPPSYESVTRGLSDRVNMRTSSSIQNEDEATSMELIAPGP
Type: cell-based

Cc1cnc(C(C)NC(=O)CN2CCc3cccc(O)c3C2)s1 (centres unmarked) [Example 29, 2-(8-Hydroxy-3,4-dihydro-1H-isoquinolin-2-yl)-N-[1-(5-methyl-thiazol-2-yl)-ethyl]-acetamide] gave an IC50 of 15000 nM.

Same assay, conditions: Table 1; SH-SY-5Y hNav1.8 cells, inhibition of membrane depolarisation, FLIPR membrane potential dye, 250 nM TTX, test concentration range 100 μM-0.05 μM; read-out: IC50

Point of comparison: COc1cccc2c1CN(C(=O)CON=C(c1ccccc1)c1ccccc1)CC2 [Example 43, 2-Benzhydrylideneaminooxy-1-(8-methoxy-3,4-dihydro-1H-isoquinoline-2-yl)-ethanone], IC50 1670 nM. Against it:
- COc1cccc2c1CN(CC(=O)NCCC(c1ccccc1)c1ccccc1)CC2 [Example 22, N-(3,3-Diphenyl-propyl)-2-(8-methoxy-3,4-dihydro-1H-isoquinolin-2-yl)-acetamide] — 2.1-fold lower, 810 nM
- O=C(CN1CCc2cccc(O)c2C1)N(Cc1ccccc1)Cc1ccccc1 [Example 23, N,N-Dibenzyl-2-(8-hydroxy-3,3-dihydro-1H-isoquinolin-2-yl)-acetamide] — 6.4-fold lower, 260 nM
- N-Benzhydryl-2-(8-methoxy-3,4-dihydro-1H-isoquinolin-2-yl)-N-phenyl-acetamide [Example 21] — within 1.5-fold, 1250 nM
- COc1cccc2c1CN(CCCC(c1ccc(F)cc1)c1ccc(F)cc1)CC2 [Example 10, 2-[4,4-Bis-(4-fluoro-phenyl)-butyl]-8-methoxy-1,2,3,4-tetrahydro-isoquinoline] — 3.5-fold lower, 480 nM

Same assay, conditions: Table 2 (compound numbers of the list in the description); SH-SY-5Y hNav1.8 cells, inhibition of membrane depolarisation, FLIPR membrane potential dye, 250 nM TTX, test concentration range 100 μM-0.05 μM; read-out: IC50

Point of comparison: COc1cccc2c1CN(CC(=O)NCCCn1c3ccccc3c3ccccc31)CC2 [Compound 128, N-(3-Carbazol-9-yl-propyl)-2-(8-methoxy-3,4-dihydro-1H-isoquinolin-2-yl)-acetamide], IC50 3510 nM. Against it:
- COc1cc2c(cc1OC)CN(CC(=O)N1c3ccccc3Sc3ccc(SC)cc31)CC2 [Compound 156, 2-(6,7-Dimethoxy-3,4-dihydro-1H-isoquinolin-2-yl)-1-(2-methylsulfanyl-phenothiazin-10-yl)-ethanone] — within 1.5-fold, 2370 nM
- CS(=O)(=O)Nc1cccc2c1CN(CC(=O)NCCCC(c1ccccc1)c1ccccc1)CC2 [Compound 117, N-(4,4-Diphenyl-butyl)-2-(8-methanesulfonylamino-3,4-dihydro-1H-isoquinolin-2-yl)-acetamide] — 2.6-fold lower, 1360 nM
- COc1cccc2c1CN(CC(=O)N(Cc1ccccc1)Cc1ccccc1)CC2 [Compound 79, N,N-dibenzyl-2-(8-methoxy-3,4-dihydro-1H-isoquinolin-2-yl)-acetamide] — 3.4-fold lower, 1020 nM
- Nc1cccc2c1CN(CC(=O)NCC(c1ccccc1)c1ccccc1)C2 [Compound 98, 2-(4-Amino-1,3-dihydro-isoindol-2-yl)-N-(2,2-diphenyl-ethyl)-acetamide] — 1.9-fold higher, 6760 nM
- COc1ccc(N(C(=O)CN2CCc3cccc(OC)c3C2)c2ccc(OC)cc2)cc1 [Compound 182, 2-(8-Methoxy-3,4-dihydro-1H-isoquinolin-2-yl)-N,N-bis-(4-methoxy-phenyl)-acetamide] — 1.6-fold lower, 2140 nM
- COc1cccc2c1CN(CCC(=O)N(Cc1ccccc1)Cc1ccccc1)CC2 [Compound 87, N,N-dibenzyl-3-(8-methoxy-3,4-dihydro-1H-isoquinolin-2-yl)-propionamide] — 7.2-fold lower, 490 nM
- O=C(CN1CCc2cccc(O)c2C1)N1c2ccccc2Sc2ccc(C(F)(F)F)cc21 [Compound 145, 2-(8-Hydroxy-3,4-dihydro-1H-isoquinolin-2-yl)-1-(2-trifluoromethyl-phenothiazin-10-yl)-ethanone] — within 1.5-fold, 2630 nM
- CS(=O)(=O)Oc1cccc2c1CN(CC(=O)N1c3ccccc3Oc3ccccc31)C2 [Compound 203, Methanesulfonic acid 2-(2-oxo-2-phenoxazin-10-yl-ethyl)-2,3-dihydro-1H-isoindol-4-yl ester] — 3.2-fold lower, 1110 nM
- COc1cccc2c1CN(CC(=O)N1CC(c3nnc(C)o3)Oc3ccccc31)CC2 (centres unmarked) [Compound 187, 2-(8-Methoxy-3,4-dihydro-1H-isoquinolin-2-yl)-1-[2-(5-methyl-[1,3,4]oxadiazol-2-yl)-2,3-dihydro-benzo[1,4]oxazin-4-yl]-ethanone] — 5.4-fold higher, 19100 nM
- O=C(CN1Cc2ccccc2C1)N1c2ccccc2Oc2ccccc21 [Compound 178, 2-(1,3-Dihydro-isoindol-2-yl)-1-phenoxazin-10-yl-ethanone] — 5.7-fold lower, 620 nM
- COc1cccc2c1CN(CC(=O)N1c3ccccc3Oc3ccccc31)C2 [Compound 196, 2-(4-Methoxy-1,3-dihydro-isoindol-2-yl)-1-phenoxazin-10-yl-ethanone] — 3.8-fold lower, 930 nM
- COc1cc2c(cc1OC)CN(CC(=O)N1c3ccccc3[S+]([O-])c3ccccc31)CC2 [Compound 157, 2-(6,7-Dimethoxy-3,4-dihydro-1H-isoquinolin-2-yl)-1-(5-oxo-5H-5lambda*4*-phenothiazin-10-yl)-ethanone] — 8.5-fold higher, 30000 nM
- COc1cccc2c1CN(CC(=O)NN(c1ccccc1)c1ccccc1)CC2 [Compound 168, (8-Methoxy-3,4-dihydro-1H-isoquinolin-2-yl)-acetic acid N′,N′-diphenyl-hydrazide] — 1.7-fold lower, 2010 nM
